Calls of active or inactive are those of the source. The calls are words filed in the database; no cut-off is given here.

Common to all, as to format: cell-based
Assay [1] has as its target T1, Transient receptor potential cation channel subfamily M member 4 (Homo sapiens, UniProt Q8TD43). The experiment in a line: Inhibition of Flag-tagged TRPM4 (unknown origin) expressed in HEK293 cells assessed as reduction in intracellular Na+ influx after 45 mins by ANG2 dye-based fluorescence assay.
For assay [2], the target named is T1, Transient receptor potential cation channel subfamily M member 4. The experiment in a line: Inhibition of Flag-tagged TRPM4 (unknown origin) expressed in HEK293 cells assessed as reduction in intracellular Na+ influx at 10 uM after 45 mins by ANG2 dye-based fluorescence assay relative to control.
For assay [3] the target is unchanged. The experiment in a line: Inhibition of Flag-tagged TRPM4 (unknown origin) expressed in HEK293 cells assessed as reduction in intracellular Na+ influx up to 100 uM after 45 mins by ANG2 dye-based fluorescence assay.

T1 sequence (Q8TD43 whole entry): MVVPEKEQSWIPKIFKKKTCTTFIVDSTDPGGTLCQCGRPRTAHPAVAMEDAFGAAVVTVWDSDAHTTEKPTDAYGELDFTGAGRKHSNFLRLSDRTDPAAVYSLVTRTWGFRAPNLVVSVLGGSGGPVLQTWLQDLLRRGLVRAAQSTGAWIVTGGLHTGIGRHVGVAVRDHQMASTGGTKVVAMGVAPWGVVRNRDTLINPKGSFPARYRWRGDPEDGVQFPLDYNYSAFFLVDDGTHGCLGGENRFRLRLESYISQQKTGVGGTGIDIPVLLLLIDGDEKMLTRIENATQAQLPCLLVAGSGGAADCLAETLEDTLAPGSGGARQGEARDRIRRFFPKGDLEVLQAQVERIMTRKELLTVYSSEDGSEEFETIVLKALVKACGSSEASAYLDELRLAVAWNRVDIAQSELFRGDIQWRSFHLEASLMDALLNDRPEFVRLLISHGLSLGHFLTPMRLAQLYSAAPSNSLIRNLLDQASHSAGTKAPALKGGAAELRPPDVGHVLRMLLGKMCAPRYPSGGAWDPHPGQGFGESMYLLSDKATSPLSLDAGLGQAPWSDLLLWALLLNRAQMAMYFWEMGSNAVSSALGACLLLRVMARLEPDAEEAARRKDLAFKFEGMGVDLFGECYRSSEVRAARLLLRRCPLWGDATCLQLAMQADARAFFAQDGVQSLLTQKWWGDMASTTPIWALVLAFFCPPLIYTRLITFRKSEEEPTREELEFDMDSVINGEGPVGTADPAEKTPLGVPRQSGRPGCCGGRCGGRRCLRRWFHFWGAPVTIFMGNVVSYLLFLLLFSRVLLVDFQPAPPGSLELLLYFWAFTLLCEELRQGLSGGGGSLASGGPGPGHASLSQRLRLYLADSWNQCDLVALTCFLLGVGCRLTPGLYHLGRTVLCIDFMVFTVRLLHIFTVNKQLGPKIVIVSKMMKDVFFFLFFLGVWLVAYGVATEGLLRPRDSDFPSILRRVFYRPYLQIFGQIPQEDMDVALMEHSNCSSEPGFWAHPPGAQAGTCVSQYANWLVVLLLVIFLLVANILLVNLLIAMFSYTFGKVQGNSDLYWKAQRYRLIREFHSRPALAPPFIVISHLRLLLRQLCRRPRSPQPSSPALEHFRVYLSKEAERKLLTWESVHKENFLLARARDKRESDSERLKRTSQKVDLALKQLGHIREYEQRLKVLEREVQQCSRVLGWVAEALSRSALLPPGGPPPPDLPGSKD

What is called IC50 is the concentration at which inhibition is half-maximal. `Cc1cc(Cl)ccc1OC(C)C(=O)Nc1cc(Cl)ccc1C(=O)O` (centres undefined): in assay [1] (hek293), the concentration for half-maximal inhibition (IC50) was 1.6 µM.

Turning to `O=C(COc1ccccc1Cl)Nc1cc(-c2nccs2)ccc1C(=O)O`, the half-inhibitory concentration (IC50) in assay [1] stood at 4.7 µM. Same read-out and setting: the same measure for `Cc1cccc(NC(=O)COc2ccccc2Cl)c1C(=O)O`: 1.3 µM.

Turning to `O=C(COc1ccccc1Cl)Nc1cc(-c2ccsc2)ccc1C(=O)O`, the IC50 in assay [1] came out at 5.9 µM. On to `O=C(COc1ccccc1Cl)Nc1cc(Cl)ccc1C(=O)NS(=O)(=O)C1CC1`, for which, in assay [1], the IC50 turned out to be 2.8 µM.

The term inhibition denotes the drop in the measured response relative to a control, in per cent. `O=C(COc1ccccc1Cl)Nc1cc(Cl)c(Cl)cc1C(=O)O`: the inhibition in assay [2] is 30%.

In the case of `O=C(COc1ccccc1Cl)Nc1cc(-c2ncco2)ccc1C(=O)O`, the concentration for half-maximal inhibition (IC50) in assay [1] was found to be 4.9 µM.

Consider `Cc1noc(C)c1-c1ccc(C(=O)O)c(NC(=O)COc2ccccc2Cl)c1`, for which the inhibition result in assay [3] was “inactive”. Take `N#Cc1ccc(C(=O)O)c(NC(=O)COc2ccccc2Cl)c1`: the half-inhibitory concentration (IC50) in assay [1] was 3.6 µM.

Source of the values: ChEMBL document CHEMBL4400524, “Optimizing TRPM4 inhibitors in the MHFP6 chemical space” (Eur J Med Chem, 2019).
